Source: PubChem BioAssay AID248 (DTP/NCI, 2004)
Several values for one entry are separate records, joined by “and”; a condition that tells them apart may be missing. Equal entries are not always repeated. Inconclusive results and toxic doses are left out. Cut-off read from the data, not from the text of the source: active = T/C of 150% or more; inactive = T/C below 125%.

Tested on: L1210 leukemia ip in BDF1 mice, survival T/C
Experiment: NCI In Vivo Anticancer Drug Screen. Data for tumor model L1210 Leukemia (intraperitoneal) in B6D2F1 (BDF1) mice
Settings: endpoint: mean survival time, higher = longer survival
In short: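 Antitumor effect is assessed in tumor-bearing animals. Survival in the compound arm is compared with a vehicle-dosed control arm and expressed as their quotient.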

[1] = dose: 100.0 mg/kg/injection, schedule: Q04DX003 (ip), vehicle: saline with Tween-80
[2] = dose: 200.0 mg/kg/injection, schedule: Q04DX003 (ip), vehicle: saline with Tween-80
[3] = dose: 400.0 mg/kg/injection, schedule: Q04DX003 (ip), vehicle: saline with Tween-80
[4] = dose: 200.0 mg/kg/injection, schedule: Q01DX001 (ip), vehicle: saline
[5] = dose: 400.0 mg/kg/injection, schedule: Q01DX001 (ip), vehicle: saline
[6] = dose: 100.0 mg/kg/injection, schedule: Q01DX009 (ip), vehicle: saline with Tween-80
[7] = dose: 200.0 mg/kg/injection, schedule: Q01DX009 (ip), vehicle: saline with Tween-80
[8] = dose: 400.0 mg/kg/injection, schedule: Q01DX009 (ip), vehicle: saline with Tween-80
[9] = dose: 100.0 mg/kg/injection, schedule: Q01DX009 (ip), vehicle: Klucel (hydroxypropylcellulose) (HPC)
[10] = dose: 200.0 mg/kg/injection, schedule: Q01DX009 (ip), vehicle: Klucel (hydroxypropylcellulose) (HPC)
[11] = dose: 400.0 mg/kg/injection, schedule: Q01DX009 (ip), vehicle: Klucel (hydroxypropylcellulose) (HPC)
[12] = dose: 50.0 mg/kg/injection, schedule: Q04DX003 (ip), vehicle: saline with Tween-80
[13] = dose: 100.0 mg/kg/injection, schedule: Q04DX003 (ip), vehicle: Klucel (hydroxypropylcellulose) (HPC)
[14] = dose: 200.0 mg/kg/injection, schedule: Q04DX003 (ip), vehicle: Klucel (hydroxypropylcellulose) (HPC)
[15] = dose: 400.0 mg/kg/injection, schedule: Q04DX003 (ip), vehicle: Klucel (hydroxypropylcellulose) (HPC)
[16] = dose: 100.0 mg/kg/injection, schedule: Q04DX002 (ip), vehicle: Klucel (hydroxypropylcellulose) (HPC)
[17] = dose: 400.0 mg/kg/injection, schedule: Q04DX002 (ip), vehicle: Klucel (hydroxypropylcellulose) (HPC)

Measured: T/C

COc1ccc(-n2c(=O)c(N=Nc3ccc(Cl)cc3)c(O)n(-c3ccccc3C)c2=S)cc1
inactive: dose: 37.5 mg/kg/injection, schedule: Q01DX001 (ip), vehicle: Klucel (hydroxypropylcellulose) (HPC) 96 % of control | dose: 75.0 mg/kg/injection, schedule: Q01DX001 (ip), vehicle: Klucel (hydroxypropylcellulose) (HPC) 90 % of control | dose: 150.0 mg/kg/injection, schedule: Q01DX001 (ip), vehicle: Klucel (hydroxypropylcellulose) (HPC) 92 % of control

CCCC(NC(=O)C(C)NC(=O)OCc1ccccc1)C(=O)OC (stereo not given)
inactive: [1] 93 % of control | [2] 93 % of control | [3] 86 % of control

COc1ccccc1C(=O)OCC(=O)c1ccc(-c2ccccc2)cc1
inactive: [4] 91 % of control | [5] 94 % of control

CCN(CC)CC(=O)CC12CC3CC(CC(C3)C1)C2
inactive: dose: 0.8 mg/kg/injection, schedule: Q04DX002 (ip), vehicle: saline 93 % of control | dose: 1.6 mg/kg/injection, schedule: Q04DX002 (ip), vehicle: saline 97 % of control | dose: 3.1 mg/kg/injection, schedule: Q04DX002 (ip), vehicle: saline 101 % of control | dose: 6.25 mg/kg/injection, schedule: Q04DX002 (ip), vehicle: saline 97 % of control

C1CCC(=C(C2CCCC2)C2CCCC2)C1
inactive: dose: 75.0 mg/kg/injection, schedule: Q04DX002 (ip), vehicle: saline with Tween-80 105 % of control | dose: 150.0 mg/kg/injection, schedule: Q04DX002 (ip), vehicle: saline with Tween-80 99 % of control | dose: 300.0 mg/kg/injection, schedule: Q04DX002 (ip), vehicle: saline with Tween-80 99 % of control

CCCCCCCCCCCC[Si](CCCCCCCCCCCC)(c1ccccc1)c1ccccc1
inactive: [6] 91 % of control | [7] 93 % of control | [8] 96 % of control

O=C(Nc1ccccc1F)Nc1cc([N+](=O)[O-])ccc1Cl
inactive: [9] 87 % of control | [10] 94 % of control | [11] 87 % of control

CC1(C)N=C(N)N=C(N)N1c1ccc(OCCCc2ccccc2)c(N)c1
inactive: dose: 25.0 mg/kg/injection, schedule: Q04DX003 (ip), vehicle: saline with Tween-80 100 % of control | [12] 96 % of control

CC1CN(c2ccncc2N)CCN1c1ccc(Cl)cc1 (stereo not given)
inactive: [1] 110 % of control | [2] 105 % of control | [3] 105 % of control

OCC12COC(c3ccccc3)N1C(c1ccccc1)OC2 (stereo not given)
inactive: [9] 102 % of control | [13] 102 % of control | [10] 102 % of control | [14] 102 % of control | [11] 97 % of control | [15] 100 % of control

O=S(=O)(Cc1ccc(Cl)cc1)Cc1ccc(Cl)cc1
inactive: dose: 100.0 mg/kg/injection, schedule: Q01DX009 (ip), vehicle: saline sonified 93 % of control | [13] 95 % of control | dose: 200.0 mg/kg/injection, schedule: Q01DX009 (ip), vehicle: saline sonified 93 % of control | [14] 92 % of control | dose: 400.0 mg/kg/injection, schedule: Q01DX009 (ip), vehicle: saline sonified 93 % of control | [15] 103 % of control

CC(=O)OC1CCC2(C)C(CCC3C2CC(OC(C)=O)C2(C)C3CCC2C2(C)SCCS2)C1 (stereo not given)
inactive: [16] 94 % of control | [17] 87 % of control

CN1CCCC2C3=CC=C4CC(O)CCC4(C)C3CCC21C (stereo not given)
inactive: dose: 75.0 mg/kg/injection, schedule: Q01DX001 (ip), vehicle: carboxymethylcellulose (CMC) 98 % of control | dose: 150.0 mg/kg/injection, schedule: Q01DX001 (ip), vehicle: carboxymethylcellulose (CMC) 101 % of control

C=CCNC(=O)OCC
inactive: [1] 100 % of control | [2] 95 % of control | [3] 100 % of control

CC(=O)Cc1cc(C)nc(/N=C(\N)N2CCCCC2)n1
inactive: [16] 92 % of control | dose: 200.0 mg/kg/injection, schedule: Q04DX002 (ip), vehicle: Klucel (hydroxypropylcellulose) (HPC) 103 % of control | [17] 96 % of control

NC(N)=NCCCC(NC(=O)OCc1ccccc1)C(=O)Nc1ccc2ccccc2c1 (stereo not given)
inactive: [9] 102 % of control | [10] 103 % of control

CC(=O)Nc1c(Cl)cc2c(c1Cl)C(=O)c1ccccc1-2
inactive: [13] 105 % of control | [14] 100 % of control | [15] 103 % of control

CC1CCc2cc3c(cc2C1)S(=O)(=O)c1ccccc1-3 (stereo not given)
inactive: dose: 100.0 mg/kg/injection, schedule: Q01DX001 (ip), vehicle: saline 96 % of control | [4] 86 % of control | [5] 86 % of control

C=CCN(CC#N)CC#N
inactive: dose: 5.0 mg/kg/injection, schedule: Q04DX003 (ip), vehicle: Klucel (hydroxypropylcellulose) (HPC) 98 % of control | dose: 10.0 mg/kg/injection, schedule: Q04DX003 (ip), vehicle: Klucel (hydroxypropylcellulose) (HPC) 100 % of control (2×) and 86 % of control

C1=CC2(CC1)OCCO2
inactive: dose: 50.0 mg/kg/injection, schedule: Q01DX009 (ip), vehicle: saline with Tween-80 106 % of control | [12] 91 % of control | [6] 104 % of control | [1] 102 % of control | [7] 106 % of control | [2] 92 % of control | [8] 104 % of control | [3] 102 % of control

CSc1cc(N)nc(N)c1[N+](=O)[O-]
inactive: dose: 100.0 mg/kg/injection, schedule: Q01DX001 (ip), vehicle: Klucel (hydroxypropylcellulose) (HPC) 99 % of control | dose: 200.0 mg/kg/injection, schedule: Q01DX001 (ip), vehicle: Klucel (hydroxypropylcellulose) (HPC) 96 % of control | dose: 400.0 mg/kg/injection, schedule: Q01DX001 (ip), vehicle: Klucel (hydroxypropylcellulose) (HPC) 94 % of control

O=C(Nc1ccc(Cl)cc1[N+](=O)[O-])Oc1ccc(Cl)cc1Cc1ccccc1
inactive: [12] 116 % of control | dose: 100.0 mg/kg/injection, schedule: Q01DX001 (ip), vehicle: saline with Tween-80 98 % of control | [6] 100 % of control and 87 % of control | dose: 100.0 mg/kg/injection, schedule: Q04DX002 (ip), vehicle: saline with Tween-80 98 % of control and 102 % of control | [1] 98 % of control and 92 % of control | dose: 200.0 mg/kg/injection, schedule: Q01DX001 (ip), vehicle: saline with Tween-80 93 % of control | [7] 94 % of control and 95 % of control | dose: 200.0 mg/kg/injection, schedule: Q04DX002 (ip), vehicle: saline with Tween-80 94 % of control and 98 % of control | [2] 102 % of control | dose: 400.0 mg/kg/injection, schedule: Q01DX001 (ip), vehicle: saline with Tween-80 91 % of control | [8] 94 % of control and 90 % of control | dose: 400.0 mg/kg/injection, schedule: Q04DX002 (ip), vehicle: saline with Tween-80 96 % of control and 98 % of control | [3] 102 % of control and 87 % of control

Cc1nc(N)[nH]c(=O)c1CCCc1ccccc1
inactive: dose: 100.0 mg/kg/injection, schedule: Q01DX009 (ip), vehicle: gum acacia 103 % of control | dose: 200.0 mg/kg/injection, schedule: Q01DX009 (ip), vehicle: gum acacia 94 % of control | dose: 400.0 mg/kg/injection, schedule: Q01DX009 (ip), vehicle: gum acacia 95 % of control
